{"source": "patent US20040053234A1", "about": "“Polynucletides that control delta-6 desaturase genes and methods for identifying compounds for modulating delta-6 desaturase” (priority 2000, published 2004)", "key": {"fatty acid desaturases": {"system": "fatty acid desaturases", "conditions": "Kawashima et al., 1996; cited from earlier work"}, "[1]": {"biological_target": "T1, hD6D-1 (with V5/6xHis tags) (Homo sapiens, UniProt O95864)", "T1 sequence (O95864 1-444)": "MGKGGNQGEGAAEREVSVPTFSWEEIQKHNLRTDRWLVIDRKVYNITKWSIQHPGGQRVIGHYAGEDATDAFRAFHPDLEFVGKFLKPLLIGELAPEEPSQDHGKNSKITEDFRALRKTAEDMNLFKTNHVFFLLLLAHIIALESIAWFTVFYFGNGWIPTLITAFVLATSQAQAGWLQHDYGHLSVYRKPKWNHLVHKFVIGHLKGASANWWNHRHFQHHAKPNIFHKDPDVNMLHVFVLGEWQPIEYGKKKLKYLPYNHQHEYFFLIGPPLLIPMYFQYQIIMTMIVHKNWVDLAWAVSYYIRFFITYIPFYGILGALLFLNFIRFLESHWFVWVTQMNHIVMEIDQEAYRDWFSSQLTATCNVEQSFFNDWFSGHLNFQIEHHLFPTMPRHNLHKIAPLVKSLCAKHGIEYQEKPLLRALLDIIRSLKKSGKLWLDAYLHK", "experiment": "Inhibition of hD6D-1 in whole cells of transformed Saccharomyces cerevisiae", "assay_type": "cell-based", "set-up": "expressed in transfected cells; host or cells: Saccharomyces cerevisiae INVSc1 transformed with pTh5002.1 (pYES2/CT)", "conditions": "[1-14C]-alpha-linolenic acid", "description": "Transformed Saccharomyces cerevisiae pTh5002.1 with V5/6xHis tags were incubated in a 125 ml Erlenmeyer flask containing 9 ml of modified SC-U medium with 1% tergitol (O.D.6000.4, approximately 3.2×10^6 cells) and 200 μl of 7, 14 or 28 mM n-propyl gallate in ethanol. After 1 h incubation in an orbital incubator at 270 rpm and 30° C., 1 μCi of potassium salts of [1-^14C]-linoleic or [1-^14C]-alpha-linolenic acids (dissolved in modified SC-U medium and 1% tergitol) were added to the cell suspension to a final concentration of 2 μM. After 5 h incubation with the inhibitor, cells reached the log phase and the transgene expression was induced with the addition of 1 ml of galactose to a final concentration of 2%. Yeast were further incubated for 19 h (OD600 range 7.2-9.3) until they were harvested by centrifugation at 5000×g for 10 minutes at 4° C. Cell were washed with Tris buffer (100 mM, pH 8.0) containing 0.1% BSA and total lipids were extracted as described below.\nThe radioactivity from aliquots of the supernatant, spheroplasts and whole cells was determined by liquid scintillation counting using a LS6500-Scintillation System (Beckman) prior to the lipid extraction. […]\nThe desaturase activity was determined by measuring the conversion of radiolabelled linoleic acid to gammna-linolenic acid (18:2n-6 to 18:3n-6) and alpha-linolenic acid to stearidonic acid (18:3n-3 to 18:4n-3). […]"}, "[2]": {"biological_target": "T2, rD6D-1 (without V5/6xHis tags) (Rattus norvegicus, UniProt Q9Z122)", "T2 sequence (Q9Z122 whole entry)": "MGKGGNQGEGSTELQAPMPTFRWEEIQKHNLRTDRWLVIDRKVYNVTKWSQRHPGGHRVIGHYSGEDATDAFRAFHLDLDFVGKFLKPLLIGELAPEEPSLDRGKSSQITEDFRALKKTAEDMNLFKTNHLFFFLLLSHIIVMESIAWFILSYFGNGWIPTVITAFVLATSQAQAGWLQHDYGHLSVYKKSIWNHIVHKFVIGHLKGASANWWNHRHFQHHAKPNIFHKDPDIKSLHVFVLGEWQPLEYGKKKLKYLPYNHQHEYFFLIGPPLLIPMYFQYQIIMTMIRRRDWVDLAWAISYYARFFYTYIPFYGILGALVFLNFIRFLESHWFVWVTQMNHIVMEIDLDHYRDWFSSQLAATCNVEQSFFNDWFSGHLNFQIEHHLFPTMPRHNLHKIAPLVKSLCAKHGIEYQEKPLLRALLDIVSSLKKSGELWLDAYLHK", "description": "(§1) Saccharomyces cerevisiae transformed with pYr5003.1 without V5/6×His tags or pTh5002.1 with V5/6×His tags were grown in modified SC-U medium with 2% galactose to induce the expression of the gene that encodes the fatty acid delta-6-desaturase. After 16 h incubation, cells were centrifuged at 2060×g for 5 min at 4° C., washed once with distilled water and centrifuged again. The volume and weight of the cell pellet were measured Cells were suspended (1:2 w/v) in 0.1 M Tris.SO4 (pH 9.4), 10 mM DTT and incubated at 30° C. After 10 min incubation, the cell pellet was obtained by centrifugation, washed once (1:20 w/v) with 1.2 M sorbitol and suspended (1:1 w/v) in 1.2 M sorbitol, 20 mM phosphate buffer (pH 7.4) as described elsewhere (Daum et al., 1982, J. Biol. Chem., 257: 13028-13033). The 15,800× g (1 min) supernatant of Lyticase was added to the cell suspension at a concentration of 2000 U/ml and the suspension incubated at 30° C. with 50 rpm shaking. Conversion to spheroplasts was checked after 40 min incubation by diluting the suspension with distilled water followed by observation under the microscope (Schatz G. and Kovac L., 1974, Methods in Enzymology, 31A: 627-632).\n(§2) Spheroplasts were harvested by centrifugation at 2060×g for 5 min at 4° C. and washed once with 1.2 M sorbitol. Spheroplasts were suspended in modified SC-U medium with 1% tergitol, 1.2 M sorbitol and 2% galactose to maintain the induction conditions and to give an OD600 reading of approximately 2.5-3.0. A 10 ml aliquot of the spheroplast suspension was transferred to a 125 ml Erlenmeyer flask and incubated with 200 μL of n-propyl gallate in ethanol (final concentration in the culture ranged between 0.7 and 14.1 mM) at 30° C. in an orbital incubator set at 270 rpm After 30 min incubation 1 μCi of [1-^14C]-alpha-linolenic or [1-^14C]-linoleic acids were added to the cultures to a final concentration of 2 μM and further incubated for 120 min. At this time point, turbidity readings at OD600 were taken, spheroplasts were harvested by centrifugation and washed with Tris buffer (100 mM, pH 8.0) containing 0.1%/o BSA. Total lipids were extracted as described below.\n(§3) The radioactivity from aliquots of the supernatant, spheroplasts and whole cells was determined by liquid scintillation counting using a LS6500-Scintillation System (Beckman) prior to the lipid extraction. Total lipids were extracted from cells or spheroplasts with chloroform/methanol (2:1 v/v) according to the method of Folch et al., 1957, J. Biol. Chem., 226: 497-509. The total lipid extracts were methylated using boron trifluoride in methanol at 90° C. for 30 min.\n(§4) The desaturase activity was determined by measuring the conversion of radiolabelled linoleic acid to gammna-linolenic acid (18:2n-6 to 18:3n-6) and alpha-linolenic acid to stearidonic acid (18:3n-3 to 18:4n-3). The percent inhibition was calculated as described elsewhere (Kawashima et al., 1996, Biosci. Biotech. Biochem., 60:1672-1676):\n(§5) Inhibition % =(activity without the inhibitor−activity with the inhibitor)/activity without the inhibitor"}, "[3]": {"biological_target": "T1, hD6D-1 (with V5/6xHis tags)", "description": "as §1, §2, §3, §4, §5"}, "delta 6 desaturase": {"biological_target": "T3, delta 6 desaturase (Rattus norvegicus, UniProt Q9Z122)", "T3 construct": "from tissue; host or cells: rat liver microsomes (female Wistar rats)", "T3 sequence (Q9Z122 whole entry)": "as above", "experiment": "Inhibition of delta 6 desaturase in rat liver microsomes incubated with alpha-linolenic or linoleic acid", "assay_type": "biochemical", "protocol": "As proposed by Leikin and Brenner (Leikin A. I. and Brenner R. R., 1989, Biochim. Biophys. Acta. September 25, 1005: 187-191), the following are best conditions for the desaturation assays since the enzymes are saturated with the substrates and the reactions are linear within the incubation time. Reactions were started by adding 2 or 3 mg of microsomal protein to pre-incubated tubes containing 0.20 μCi of the substrate fatty acid at a final concentration of 33.3 μM in 1.5 ml of the homogenization solution, containing NaF (42 mM), niacinamide (0.33 mM), ATP (1.57 mM), NADH (1.01 mM) and coenzyme A (0.09 mM) as described elsewhere (Leikin A. I. and Brenner R. R., 1989, Biochim. Biophys. Acta. September 25,1005: 187-191).The tubes were vortexed vigorously and after 15 min incubation in a shaling water bath (37° C.), the reactions were stopped by the addition of 2 ml of 10% (w/v) KOH in ethanol. Lipids in the incubation mixture were saponified at 80° C. for 45 min under N2. The samples were then left in ice for 5 min before acidification. The fatty acids were extracted with hexane and esterified with BF3/methanol at 90° C. for 30 min (Morrison W. R. and Smith L. M., 1964, J. Lipid Res., 5: 600-608).\nHepatic microsomes were obtained from female Wistar rats by differential centrifigation as described in Example 3.\nIncubations were performed as described in Example 3. N-propyl gallate was added to the incubation medium to a final concentration that ranged from 0.02 to 0.32 mM."}, "[4]": {"biological_target": "T2, rD6D-1 (without V5/6xHis tags)", "experiment": "Inhibition of rD6D-1 in spheroplasts of transformed Saccharomyces cerevisiae", "conditions": "[1-14C]-linoleic acid", "description": "as §1, §2, §3, §4, §5"}, "[5]": {"system": "whole cells of transformed Saccharomyces cerevisiae", "experiment": "O.D.600 and substrate radioactivity recovered in whole yeast cells", "conditions": "hD6D-1 whole cells", "protocol": "Transformed Saccharomyces cerevisiae pTh5002.1 with V5/6xHis tags were incubated in a 125 ml Erlenmeyer flask containing 9 ml of modified SC-U medium with 1% tergitol (O.D.6000.4, approximately 3.2×10^6 cells) and 200 μl of 7, 14 or 28 mM n-propyl gallate in ethanol. After 1 h incubation in an orbital incubator at 270 rpm and 30° C., 1 μCi of potassium salts of [1-^14C]-linoleic or [1-^14C]-alpha-linolenic acids (dissolved in modified SC-U medium and 1% tergitol) were added to the cell suspension to a final concentration of 2 μM. After 5 h incubation with the inhibitor, cells reached the log phase and the transgene expression was induced with the addition of 1 ml of galactose to a final concentration of 2%."}, "[6]": {"biological_target": "T1, hD6D-1 (with V5/6xHis tags)", "experiment": "Inhibition of hD6D-1 in spheroplasts of transformed Saccharomyces cerevisiae", "conditions": "[1-14C]-alpha-linolenic acid", "description": "as §1, §2, §3, §4, §5"}, "[7]": {"system": "spheroplasts of transformed Saccharomyces cerevisiae", "experiment": "O.D.600 and substrate radioactivity recovered in spheroplasts (cytotoxicity, uptake)", "assay_type": "cell-based", "source_text": "Total lipids were extracted as described below."}}}
{"smiles": "CCCOC(=O)c1cc(O)c(O)c(O)c1", "note": "[n-propyl gallate, Propyl ester of 3,4,5-trihydroxybenzoic acid]", "values": [{"measurement": "Mode of inhibition", "setting": "fatty acid desaturases", "value": "noncompetitive inhibitor"}, {"measurement": "% of inhibition", "setting": "[1]; inhibitor 7 mM", "value": 36.7, "unit": "%"}, {"measurement": "% of inhibition", "setting": "[1]; inhibitor 14 mM", "value": 73.6, "unit": "%"}, {"measurement": "inhibition", "setting": "[2]", "value": 100, "unit": "%"}, {"measurement": "inhibition", "setting": "[3]", "value": 82.3, "unit": "%"}, {"measurement": "% of inhibition 18:2n-6 → 18:3n-6", "setting": "delta 6 desaturase; inhibitor 0.02 mM", "value": 18.0, "unit": "%"}, {"measurement": "% of inhibition 18:3n-3 → 18:4n-3", "setting": "delta 6 desaturase; inhibitor 0.02 mM", "value": 28.7, "unit": "%"}, {"measurement": "% of inhibition 18:2n-6 → 18:3n-6", "setting": "delta 6 desaturase; inhibitor 0.04 mM", "value": 32.0, "unit": "%"}, {"measurement": "% of inhibition 18:3n-3 → 18:4n-3", "setting": "delta 6 desaturase; inhibitor 0.04 mM", "value": 42.5, "unit": "%"}, {"measurement": "% of inhibition 18:2n-6 → 18:3n-6", "setting": "delta 6 desaturase; inhibitor 0.08 mM", "value": 64.5, "unit": "%"}, {"measurement": "% of inhibition 18:3n-3 → 18:4n-3", "setting": "delta 6 desaturase; inhibitor 0.08 mM", "value": 54.2, "unit": "%"}, {"measurement": "% of inhibition 18:2n-6 → 18:3n-6", "setting": "delta 6 desaturase; inhibitor 0.16 mM", "value": 82.6, "unit": "%"}, {"measurement": "% of inhibition 18:3n-3 → 18:4n-3", "setting": "delta 6 desaturase; inhibitor 0.16 mM", "value": 71.3, "unit": "%"}, {"measurement": "% of inhibition 18:2n-6 → 18:3n-6", "setting": "delta 6 desaturase; inhibitor 0.32 mM", "value": 98.7, "unit": "%"}, {"measurement": "% of inhibition 18:3n-3 → 18:4n-3", "setting": "delta 6 desaturase; inhibitor 0.32 mM", "value": 79.5, "unit": "%"}, {"measurement": "% of inhibition", "setting": "[4]; inhibitor 0.7 mM", "value": 8.9, "unit": "%"}, {"measurement": "% of inhibition", "setting": "[4]; inhibitor 1.4 mM", "value": 39.2, "unit": "%"}, {"measurement": "% of inhibition", "setting": "[4]; inhibitor 2.8 mM", "value": 77.4, "unit": "%"}, {"measurement": "% of inhibition", "setting": "[4]; inhibitor 14.1 mM", "value": 100, "unit": "%"}, {"measurement": "O.D.600", "setting": "[5]; inhibitor 7 mM", "value": 9.3}, {"measurement": "O.D.600", "setting": "[5]; inhibitor 14 mM", "value": 7.2}, {"measurement": "O.D.600", "setting": "[5]; inhibitor 28 mM", "value": 0}, {"measurement": "% of inhibition", "setting": "[6]; inhibitor 0.7 mM", "value": 11.6, "unit": "%"}, {"measurement": "% of inhibition", "setting": "[6]; inhibitor 1.4 mM", "value": 18.8, "unit": "%"}, {"measurement": "% of inhibition", "setting": "[6]; inhibitor 2.8 mM", "value": 56.4, "unit": "%"}, {"measurement": "% of inhibition", "setting": "[6]; inhibitor 14.1 mM", "value": 100, "unit": "%"}, {"measurement": "Concentrations that may be toxic for the spheroplasts", "setting": "[7]; cell number slightly decreased, radioactivity recovered substantially reduced", "value": "> 5600", "unit": "µM"}, {"measurement": "O.D.600", "setting": "[7]; hD6D-1 spheroplasts, inhibitor 0.7 mM", "value": 2.2}, {"measurement": "O.D.600", "setting": "[7]; hD6D-1 spheroplasts, inhibitor 1.4 mM", "value": 3.4}, {"measurement": "O.D.600", "setting": "[7]; hD6D-1 spheroplasts, inhibitor 2.8 mM", "value": 3.1}, {"measurement": "O.D.600", "setting": "[7]; hD6D-1 spheroplasts, inhibitor 5.6 mM", "value": 3.5}, {"measurement": "O.D.600", "setting": "[7]; hD6D-1 spheroplasts, inhibitor 14.1 mM", "value": 2.5}, {"measurement": "Cytotoxicity to spheroplasts", "setting": "[7]; n-propyl gallate 0.7-5.6 mM, constant O.D.600, similar radioactivity recovered", "value": "not cytotoxic"}, {"measurement": "O.D.600", "setting": "[7]; rD6D-1 spheroplasts, inhibitor 0.7 mM", "value": 2.5}, {"measurement": "O.D.600", "setting": "[7]; rD6D-1 spheroplasts, inhibitor 1.4 mM", "value": 2.6}, {"measurement": "O.D.600", "setting": "[7]; rD6D-1 spheroplasts, inhibitor 2.8 mM", "value": 2.5}, {"measurement": "O.D.600", "setting": "[7]; rD6D-1 spheroplasts, inhibitor 5.6 mM", "value": 2.6}, {"measurement": "O.D.600", "setting": "[7]; rD6D-1 spheroplasts, inhibitor 14.1 mM", "value": 2.3}]}
